Assay results reported in patent US5641780A, “Pyrrolo-indole derivatives” (priority 1994, dated 1997).

Test system: Sarcoma 180 tumor
Assay: Therapeutic Effect on Sarcoma 180 Tumor
Format: in vivo, male ddY-strain mice
Conditions: Mus musculus, Sarcoma-180, iv, 168 h, read-out: T/C (average tumor volume treated / control), dose 2.0 mg/kg, intravenous, one day after implantation; determined seven days after implantation
Experimental: Five male ddY-strain mice each weighing 18-20 g were used for each group as test animals, and 5×10^5 Sarcoma 180 tumor cells were implantedat the axilla subcutaneously. One day after the implantation, 0.2 ml of a physiological saline containing Compound (I) at the concentration shown in Table 3 was intravenously administered to each mouse. T/C [T: average tumor volume (mm^3) of the group treated with the test compound, C: average tumor volume (mm^3) of the control group (to which 0.2 ml of a physiological saline was intravenously administered)] was determined seven days after the implantation.

SMILES	response vs control in vivo at 2 mg/kg [%]
COC(=O)c1c(C)[nH]c2c(OC(=O)c3ccc(CN4CCN(C)CC4)cc3)cc3c(c12)C(CBr)CN3C(=O)/C=C/c1ccc(OC)cc1 (stereo not shown) [Compound 28]	21
COC(=O)c1c(C)[nH]c2c(OC(=O)N(C)N)cc3c(c12)C(CBr)CN3C(=O)/C=C/c1ccc(OC)cc1 (stereo not shown) [Compound 30]	22
COC(=O)c1c(C)[nH]c2c(OC(=O)CSCC(=O)O)cc3c(c12)C(CBr)CN3C(=O)/C=C/c1ccc(OC)cc1 (stereo not shown) [Compound 33]	17

Same assay, conditions: Mus musculus, Sarcoma-180, iv, 168 h, read-out: T/C (average tumor volume treated / control), dose 4.0 mg/kg, intravenous, one day after implantation; determined seven days after implantation

SMILES	response vs control in vivo at 4 mg/kg [%]
COC(=O)c1c(C)[nH]c2c(OC(C)=O)cc3c(c12)C(CBr)CN3C(=O)/C=C/c1ccc(OC)cc1 (stereo not shown) [Compound 14]	22
COC(=O)c1c(C)[nH]c2c(OC(=O)NN3CCN(C)CC3)cc3c(c12)C(CBr)CN3C(=O)/C=C/c1ccc(OC)cc1 (stereo not shown) [Compound 19]	26
CNN(C)C(=O)Oc1cc2c(c3c(C(=O)OC)c(C)[nH]c13)C(CBr)CN2C(=O)/C=C/c1ccc(OC)cc1 (stereo not shown) [Compound 38]	14

Same assay, conditions: Mus musculus, Sarcoma-180, iv, 168 h, read-out: T/C (average tumor volume treated / control), dose 8.0 mg/kg, intravenous, one day after implantation; determined seven days after implantation

SMILES	response vs control in vivo at 8 mg/kg [%]
COC(=O)c1c(C)[nH]c2c(OC(=O)NN3CCN(C)CC3)cc3c(c12)C(CBr)CN3C(=O)/C=C/c1ccc(OC)cc1 (stereo not shown) [Compound 18]	18
COC(=O)c1c(C)[nH]c2c(OC(=O)NN3CCC(N4CCCCC4)CC3)cc3c(c12)C(CBr)CN3C(=O)/C=C/c1ccc(OC)cc1 (stereo not shown) [Compound 32]	10

Same assay, conditions: dose 8.0 mg/kg, intravenous, one day after implantation; determined seven days after implantation; 8 mg/kg

SMILES	T/C (average tumor volume treated / control)
COC(=O)c1c(C)[nH]c2c(OC(=O)NN3CCN(C)CC3)cc3c(c12)C(CBr)CN3C(=O)/C=C/c1ccc(OC)cc1 (stereo not shown) [Compound 37]	0.27

Test system: melanoma B-16
Assay: not given
Conditions: cited from earlier work

SMILES	antitumor activity against melanoma B-16
COC(=O)c1cc2c([nH]1)C(=O)C=C1N(C(=O)c3cc4cc(OC)c(OC)c(OC)c4[nH]3)CC3CC123 (stereo not shown) [DC113]	anti-tumor activity against melanoma B-16
COC(=O)[C@]1(C)NC2=C(C1=O)[C@@]13C[C@@H]1CN(C(=O)c1cc4cc(OC)c(OC)c(OC)c4[nH]1)C3=CC2=O [DC-88A]	anti-tumor activity against melanoma B-16

Test system: HeLaS3 cells
Assay: Growth Inhibitory Effect Against HeLaS3 cells
Format: cell-based
Conditions: Homo sapiens, HeLa S3, 72 h, read-out: IC50, growth inhibition of HeLaS3 cells, 72 hours, 37° C., cell counter
Experimental: HeLaS3 cells were suspended in MEM medium containing 10% fetal calf serum and 2 mM glutamine to a concentration of 2.67×10^4 cells/ml. The cell suspension thus prepared was put into wells of a 24-well culture plate in an amount of 0.75 ml per well. After the cells were incubated in a CO2 incubator overnight at 37° C., Compound (I) which had been appropriately diluted with a culture medium was added to each well in an amount of 0.25 ml.
The cells were further incubated in the CO2 incubator for 72 hours, and the culture supernatant was removed. Then, the cells were dispersed in a solution of trypsin and EDTA, and recovered. The number of the cells was counted using a cell counter. The concentration of Compound (I) at which the growth of the cells is inhibited by 50% was calculated by comparing the number of untreated cells with the number of the cells treated with Compound (I) at known concentrations, and the value was defined as IC50.

SMILES	IC50 [nM]
COC(=O)c1c(C)[nH]c2c(OC(C)=O)cc3c(c12)C(CBr)CN3C(=O)/C=C/c1ccc(OC)cc1 (stereo not shown) [Compound 14]	0.31
COC(=O)c1c(C)[nH]c2c(OC(=O)NN3CCN(C)CC3)cc3c(c12)C(CBr)CN3C(=O)/C=C/c1ccc(OC)cc1 (stereo not shown) [Compound 18]	0.54
COC(=O)c1c(C)[nH]c2c(OC(=O)c3ccc(CN4CCN(C)CC4)cc3)cc3c(c12)C(CBr)CN3C(=O)/C=C/c1ccc(OC)cc1 (stereo not shown) [Compound 28]	0.83
COC(=O)c1c(C)[nH]c2c(OC(=O)N(C)N)cc3c(c12)C(CBr)CN3C(=O)/C=C/c1ccc(OC)cc1 (stereo not shown) [Compound 30]	0.94
COC(=O)c1c(C)[nH]c2c(OC(=O)NN3CCC(N4CCCCC4)CC3)cc3c(c12)C(CBr)CN3C(=O)/C=C/c1ccc(OC)cc1 (stereo not shown) [Compound 32]	0.8
COC(=O)c1c(C)[nH]c2c(OC(=O)CSCC(=O)O)cc3c(c12)C(CBr)CN3C(=O)/C=C/c1ccc(OC)cc1 (stereo not shown) [Compound 33]	0.33
CNN(C)C(=O)Oc1cc2c(c3c(C(=O)OC)c(C)[nH]c13)C(CBr)CN2C(=O)/C=C/c1ccc(OC)cc1 (stereo not shown) [Compound 38]	1.5
COC(=O)c1c(C)[nH]c2c(OC(=O)CN3CCN(C)CC3)cc3c(c12)C(CBr)CN3C(=O)/C=C/c1ccc(OC)cc1 (stereo not shown) [Compound 39]	0.36
COC(=O)c1c(C)[nH]c2c(OC(=O)CN3CCC(N4CCCCC4)CC3)cc3c(c12)C(CBr)CN3C(=O)/C=C/c1ccc(OC)cc1 (stereo not shown) [Compound 40]	0.29

Same assay, conditions: Homo sapiens, HeLa S3; 72 hours, 37° C., cell counter; read-out: IC50, growth inhibition of HeLaS3 cells

SMILES	IC50 [nM]
COC(=O)c1c(C)[nH]c2c(OC(=O)NN3CCOCC3)cc3c(c12)C(CBr)CN3C(=O)/C=C/c1ccc(OC)cc1 (stereo not shown) [Compound 20]	6.7
COC(=O)c1c(C)[nH]c2c(OC(=O)c3nccnc3N)cc3c(c12)C(CBr)CN3C(=O)/C=C/c1ccc(OC)cc1 (stereo not shown) [Compound 21]	0.38
COC(=O)c1c(C)[nH]c2c(OC(=O)c3ccc(N)c(N)c3)cc3c(c12)C(CBr)CN3C(=O)/C=C/c1ccc(OC)cc1 (stereo not shown) [Compound 22]	2.7

Same assay, conditions: read-out: IC50, growth inhibition of HeLaS3 cells; 72 hours, 37° C., cell counter

SMILES	IC50 [nM]
COC(=O)c1c(C)[nH]c2c(OC(=O)NN3CCN(C)CC3)cc3c(c12)C(CBr)CN3C(=O)/C=C/c1ccc(OC)cc1 (stereo not shown) [Compound 19]	0.53
COC(=O)c1c(C)[nH]c2c(OC(=O)NN3CCN(C)CC3)cc3c(c12)C(CBr)CN3C(=O)/C=C/c1ccc(OC)cc1 (stereo not shown) [Compound 37]	0.91

Test system: various bacteria
Assay: not given
Conditions: cited from earlier work

SMILES	antibacterial activity against various bacteria
COC(=O)c1cc2c([nH]1)C(=O)C=C1N(C(=O)c3cc4cc(OC)c(OC)c(OC)c4[nH]3)CC3CC123 (stereo not shown) [DC113]	antibacterial activity against various bacteria
COC(=O)[C@]1(C)NC2=C(C1=O)[C@@]13C[C@@H]1CN(C(=O)c1cc4cc(OC)c(OC)c(OC)c4[nH]1)C3=CC2=O [DC-88A]	antibacterial activity against various bacteria

Test system: ddY-strain male mice
Assay: Acute toxicity (minimum lethal dose)
Format: in vivo
Conditions: intravenous, mortality at 14 days after administration
Experimental: Compound (I) was intravenously administered to ddY-strain male mice each weighing 20±1 g. MLD (minimum lethal dose) was determined by observing the mortality at 14 days after administration.

SMILES	MLD (minimum lethal dose) [mg/kg]
COC(=O)c1c(C)[nH]c2c(OC(C)=O)cc3c(c12)C(CBr)CN3C(=O)/C=C/c1ccc(OC)cc1 (stereo not shown) [Compound 14]	2.0
COC(=O)c1c(C)[nH]c2c(OC(=O)NN3CCN(C)CC3)cc3c(c12)C(CBr)CN3C(=O)/C=C/c1ccc(OC)cc1 (stereo not shown) [Compound 19]	> 8.0
COC(=O)c1c(C)[nH]c2c(OC(=O)c3ccc(CN4CCN(C)CC4)cc3)cc3c(c12)C(CBr)CN3C(=O)/C=C/c1ccc(OC)cc1 (stereo not shown) [Compound 28]	2.0
COC(=O)c1c(C)[nH]c2c(OC(=O)N(C)N)cc3c(c12)C(CBr)CN3C(=O)/C=C/c1ccc(OC)cc1 (stereo not shown) [Compound 30]	2.0
COC(=O)c1c(C)[nH]c2c(OC(=O)NN3CCC(N4CCCCC4)CC3)cc3c(c12)C(CBr)CN3C(=O)/C=C/c1ccc(OC)cc1 (stereo not shown) [Compound 32]	> 8.0
COC(=O)c1c(C)[nH]c2c(OC(=O)CSCC(=O)O)cc3c(c12)C(CBr)CN3C(=O)/C=C/c1ccc(OC)cc1 (stereo not shown) [Compound 33]	2.0
COC(=O)c1c(C)[nH]c2c(OC(=O)NN3CCN(C)CC3)cc3c(c12)C(CBr)CN3C(=O)/C=C/c1ccc(OC)cc1 (stereo not shown) [Compound 37]	> 8.0
CNN(C)C(=O)Oc1cc2c(c3c(C(=O)OC)c(C)[nH]c13)C(CBr)CN2C(=O)/C=C/c1ccc(OC)cc1 (stereo not shown) [Compound 38]	4.0
COC(=O)c1c(C)[nH]c2c(OC(=O)CN3CCN(C)CC3)cc3c(c12)C(CBr)CN3C(=O)/C=C/c1ccc(OC)cc1 (stereo not shown) [Compound 39]	4.0
COC(=O)c1c(C)[nH]c2c(OC(=O)CN3CCC(N4CCCCC4)CC3)cc3c(c12)C(CBr)CN3C(=O)/C=C/c1ccc(OC)cc1 (stereo not shown) [Compound 40]	2.0
